From US9051564B2, “Compositions for and methods of identifying antigens” (President and Fellows of Harvard College, priority 2006, dated 2015) come the findings set out here.

Entries after “also recorded” stand apart in the source; their conditions may differ.

What all share (format): cell-based, mouse
Experiment [1] has as its system T cell clone NR9.2. Put plainly: Epitope mapping: overlapping synthetic 20-mer Cta1 peptides tested for stimulating NR9.2 to secrete IFNγ (ELISA). The settings on record: for IFNγ measured: T cell line NR9.2, synthetic peptides at 25 μM. The source says: FIG. 22 is a graph showing T cell clone NR9.2 recognizes the novel T cell antigen Cta1133-152 (SEQ ID NO:2). The antigenic peptide from Cta1 was mapped by testing overlapping 20-mer synthetic peptides for their ability to stimulate NR9.2 to secrete IFNγ. […] Shown below is the protein sequence of Cta1 (SEQ ID NO:1) with […] (SEQ ID NO:2) underlined.
To map more closely the epitope within Cta1 recognized by the NR9.2 T cells, a series of overlapping 20-mer peptides covering the Cta1 sequence for their ability to stimulate NR9.2 to secrete IFNγ were screened (Table 2).
Identification of the T cell antigen Cta1. An expression library of genomic sequences from C. trachomatis serovar D was inserted into a modified form of the pDEST17 vector (Invitrogen) and transformed into the Stb12 strain of E. coli (Invitrogen). Following induction of protein expression, the bacteria were fixed in 0.5% paraformaldehyde and incubated with BMMs. NR9.2 T cells were then added and after 24 h, the supernatant was tested for the level of IFNγ by ELISA (Endogen, Rockford, Ill.). To identify the reactive peptide epitope within Cta1, synthetic 20-mer peptides (MIT Biopolymers Lab, Cambridge, Mass.) were used at a concentration of 25 μM in an IFNγ ELISA (Endogen).

Experiment [2] relates to spleen cells from NR1 TCR transgenic mice. Put plainly: Proliferation of NR1 transgenic splenocytes in response to peptide ([3H]thymidine incorporation). The settings on record: spleen cells from naïve NR1 mice. On the procedure: FIG. 16B is a graph showing proliferation of splenocytes from NR1 transgenic or non-transgenic mice in response to the indicated concentrations of Cta1133-152 (SEQ ID NO:2). Proliferation was measured by [^3H]thymidine incorporation into cells.
To determine whether the NR1 transgenic T cells were specific and responsive to Cta1, we tested the proliferation of transgenic spleen cells in response to Cta1133-152 (see FIG. 14; SEQ ID NO:2).

The test system is the same in experiment [3]. Put plainly: IFNγ secretion by NR1 spleen cells in response to peptide. Particulars: data not shown.
The test system of experiment [4] is T cell clone NR9.2. Put plainly: Screen of E. coli clones expressing C. trachomatis ORFs, cultured with BMMs and T cell clone NR9.2, IFNγ ELISA. On the procedure: FIG. 15 is an image showing clones of E. coli expressing individual C. trachomatis ORFs cultured with BMMs and then incubated with the T cell clone NR9.2. […] E. coli expressing Cta1 (encoded by ORF CT788) induced NR9.2 to secrete high levels of IFNγ (>370 ng/ml) whereas E. coli expressing other Chlamydia proteins in the library induced only background levels of IFNγ secretion (<26 ng/ml). The well indicated as Cta1 and ELISA Standards are yellow; other wells are colorless. […] ELISA standards corresponding to high amounts of IFNγ are indicated.
Chlamydia specific CD4+ T cell clone. To identify a Chlamydia-specific TCR for the creation of TCR transgenic mice, we generated a Chlamydia-specific CD4^+ T cell clone named NR9.2. The clone specifically secreted IFNγ when co-cultured with Chlamydia-infected macrophages in an intracellular cytokine staining assay (FIG. 13A). […] A library of proteins expressed by the C. trachomatis ORFs contained in the genome database was screened. […] CT788 was annotated in the published C. trachomatis genome as a predicted periplasmic protein of unknown function (Stephens et al., Science 282:754-759, 1998), and its sequence shares little homology with proteins outside of the Chlamydia genus. CT788 was designated Cta1 (Chlamydia-specific T cell antigen-1).
Identification of the T cell antigen Cta1. […]
Background: In an ELISA, binding on a coated surface is turned into a signal by an enzyme label.

For the molecule “GCANKKNRNLIGWFLAGMFF [overlapping synthetic 20-mer peptide of Cta1]”, in the experiment with T cell clone NR9.2 [1], the IFNγ measured is 0.5 (±0.3) ng.
Same read-out and setting: the same measure for “FLKECKHSPEKGIDPQELWV [overlapping synthetic 20-mer peptide of Cta1]”: 0.5 (±0.4) ng; for “SEIISIPDTMNQIAIDTEKW [overlapping synthetic 20-mer peptide of Cta1]”: 0.6 (±0.2) ng; for “NQIAIDTEKWFYLNKDYTNV [overlapping synthetic 20-mer peptide of Cta1]”: 0.5 (±0.2) ng.
On to “LPPLPSSTQDNRSMDQQDSE [overlapping synthetic 20-mer peptide of Cta1]”, for which, in the experiment with T cell clone NR9.2 [1], the IFNγ measured is 0.6 (±0.2) ng.
Still for that read-out and setting: with “IGWFLAGMFFGIFAIIFLLI [overlapping synthetic 20-mer peptide of Cta1]” the figure was 0.6 (±0.3) ng.
Consider “NRSMDQQDSEEFLLQNTLED [overlapping synthetic 20-mer peptide of Cta1]”, for which the IFNγ measured with T cell clone NR9.2 [1] is listed as 0.6 (±0.3) ng.
Consider “WKKGMPNWEKVKNIPELSGT [overlapping synthetic 20-mer peptide of Cta1]”, for which the IFNγ measured in the experiment on T cell clone NR9.2 [1] is on record as 1.4 (±0.2) ng.
Consider “LESTSLYKKAGCANKKNRNL [overlapping synthetic 20-mer peptide of Cta1]”, for which, in the experiment on T cell clone NR9.2 [1], the IFNγ measured is on record as 0.4 (±0.2) ng.
As for “OVA323-336: control peptide from ovalbumin (KISQAVHAAHAEIN) [reference compound]”, the “proliferation of NR1 spleen cells in response to peptide” value in experiment [2] is “did not proliferate”.
Regarding “VKDESPSFLVQSGVAGLEQL [overlapping synthetic 20-mer peptide of Cta1]”, in the experiment on T cell clone NR9.2 [1], the IFNγ measured is on record as 0.7 (±0.2) ng.
In the case of “KGIDPQELWVWKKGMPNWEK (listed as Chlamydia trachomatis) [20-mer peptide, amino acids 133-152 of Cta1 (CT788)]”, the “IFNγ secretion by NR1 spleen cells in response to peptide” value in experiment [3] is recorded as “secreted high levels of IFNγ”. The “proliferation of NR1 spleen cells in response to peptide” value in experiment [2] is on record as “strong proliferative response”. Moreover, the IFNγ measured with T cell clone NR9.2 [1] is listed as 58.0 (±14.0) ng. The “ability to stimulate NR9.2 to secrete IFNγ (in words)” value with T cell clone NR9.2 [1] (overlapping 20-mer peptides, listed as Cta1133-152) was “induced NR9.2 to secrete significant levels of IFNγ; also recorded: stimulated NR9.2 to secrete significant levels of IFNγ”.
As to “GPISIVQLTAFLKECKHSPE [overlapping synthetic 20-mer peptide of Cta1]”, the IFNγ measured with T cell clone NR9.2 [1] was 0.5 (±0.3) ng.
“EFLLQNTLEDSEIISIPDTM [overlapping synthetic 20-mer peptide of Cta1]”: the IFNγ measured in the experiment on T cell clone NR9.2 [1] is given as 0.6 (±0.2) ng.
“QSGVAGLEQLESI [C-terminal overlapping synthetic peptide of Cta1]”: the IFNγ measured in the experiment with T cell clone NR9.2 [1] is 0.8 (±0.2) ng.
Still for that read-out and setting: with “VKNIPELSGTVKDESPSFLV [overlapping synthetic 20-mer peptide of Cta1]” the figure was 0.8 (±0.1) ng.
Same read-out and setting: the same measure for “FYLNKDYTNVGPISIVQLTA [overlapping synthetic 20-mer peptide of Cta1]”: 0.7 (±0.4) ng.
As to “GIFAIIFLLILPPLPSSTQD [overlapping synthetic 20-mer peptide of Cta1]”, in the experiment on T cell clone NR9.2 [1], the IFNγ measured is listed as 0.4 (±0.2) ng.

B1: Cta1: Chlamydia-specific T cell antigen-1, protein encoded by C. trachomatis ORF CT788; predicted periplasmic protein of unknown function (protein, listed as Chlamydia trachomatis)
chain: MNSGMFPFTFFLLYICLGMLTAYLANKKNRNLIGWFLAGMFFGIFAIIFLLILPPLPSSTQDNRSMDQQDSEEFLLQNTLEDSEIISIPDTMNQIAIDTEKWFYLNKDYTNVGPISIVQLTAFLKECKHSPEKGIDPQELWVWKKGMPNWEKVKNIPELSGTVKDE
In the case of B1, the “stimulation of NR9.2 to secrete IFNγ (in words)” value in the experiment with T cell clone NR9.2 [4] (894 ORFs screened, E. coli expressing the protein) is reported as “stimulated NR9.2 to secrete significant levels of IFNγ”. In addition, the “IFNγ secreted by NR9.2” value in the experiment with T cell clone NR9.2 [4] (E. coli expressing the ORF, cultured with BMMs then NR9.2, supernatant IFNγ ELISA) was greater than 370 ng/mL.
